Holding throughout (test): relative viability (nuclei count vs DMSO), 5 days (fraction); higher = more cells survive
Compound in one test: CC1(COc2ccc3c(c2)ncn3-c2ccc3cccc(N4CCC(N)CC4)c3n2)COC1 [Crenolanib]
In a few lines: (§1)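 Viability is treated-well nuclei as a fraction of vehicle-well nuclei, reported as the median across plates. Before counting, lung cancer cell lines were kept overnight at 37 °C in 1536-well plates, pinned with five √10-spaced library-drug doses on vehicle-anchored plates, and left 5 days without medium change, then fixed, permeabilised and Hoechst-stained in one step, imaged at 4× and counted by MetaXpress. A plate passed only if control CV was below 25% and at least one doubling occurred.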

Compound in a further test: O=C1NC(=O)[C@@H](c2cn3c4c(cccc24)CCC3)[C@@H]1c1c[nH]c2ccccc12 [Tivantinib]
A digest of the protocol: as §1

Compound in the test “Crenolanib + Alpelisib”: CC1(COc2ccc3c(c2)ncn3-c2ccc3cccc(N4CCC(N)CC4)c3n2)COC1 [Crenolanib] + Cc1nc(NC(=O)N2CCC[C@H]2C(N)=O)sc1-c1ccnc(C(C)(C)C(F)(F)F)c1 [Alpelisib] (partner 2 µM)
In a few lines: (§2)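 Each reported value is a median over duplicate plates. It expresses relative viability: treated-well nuclei count divided by vehicle-well nuclei count. Lung cancer cell lines in 1536-well plates were dosed by pin tool a day after seeding, alone with one drug or with a fixed anchor-drug dose plus five library-drug doses (not always all listed) in √10 steps, and nuclei were counted after 5 days.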

Compound in the test “Tivantinib + Pemetrexed”: O=C1NC(=O)[C@@H](c2cn3c4c(cccc24)CCC3)[C@@H]1c1c[nH]c2ccccc12 [Tivantinib] + Nc1nc2[nH]cc(CCc3ccc(C(=O)N[C@@H](CCC(=O)O)C(=O)O)cc3)c2c(=O)[nH]1 [Pemetrexed] (partner 0.2 µM)
A digest of the protocol:
as §2

As to EKVX, the relative viability with Crenolanib (0.01 µM) is 1.06; with Crenolanib (0.03162 µM) it was 0.871; with Crenolanib (0.1 µM), 0.916; with Crenolanib (0.3162 µM) it was 1.05; in the test with Crenolanib (1 µM), 1; with Tivantinib (0.01 µM), 0.953. In addition, the relative viability in the test with Tivantinib (0.03162 µM) worked out at 0.957; with Tivantinib (0.1 µM), 0.936; with Tivantinib (0.3162 µM), 0.371; with Crenolanib + Alpelisib (first compound 0.01 µM), 0.893; with Crenolanib + Alpelisib (first compound 0.03162 µM), 0.96; with Crenolanib + Alpelisib (first compound 0.1 µM), 0.862. Besides, the relative viability is 0.965 in the test with Crenolanib + Alpelisib (first compound 0.3162 µM); 0.99 with Crenolanib + Alpelisib (first compound 1 µM); 0.344 in the test with Tivantinib + Pemetrexed (first compound 0.01 µM); 0.413 with Tivantinib + Pemetrexed (first compound 0.03162 µM); 0.425 with Tivantinib + Pemetrexed (first compound 0.1 µM); 0.203 with Tivantinib + Pemetrexed (first compound 0.3162 µM).

For EMC-BAC-2, the relative viability in the test with Crenolanib (0.01 µM) came to 1.08; with Crenolanib (0.1 µM), 0.994; with Crenolanib (0.3162 µM) it was 1.13; in the test with Crenolanib (1 µM) it was 0.84; with Tivantinib (0.01 µM), 1.01; in the test with Tivantinib (0.03162 µM) it was 0.962. In addition, the relative viability worked out at 0.997 with Tivantinib (0.1 µM); 0.998 with Tivantinib (0.3162 µM); 0.747 with Crenolanib + Alpelisib (first compound 0.01 µM); 0.758 with Crenolanib + Alpelisib (first compound 0.03162 µM); 0.68 with Crenolanib + Alpelisib (first compound 0.1 µM); 0.881 in the test with Crenolanib + Alpelisib (first compound 0.3162 µM). Moreover, the relative viability with Crenolanib + Alpelisib (first compound 1 µM) stood at 0.771; in the test with Tivantinib + Pemetrexed (first compound 0.01 µM), 0.457; with Tivantinib + Pemetrexed (first compound 0.03162 µM) it was 0.448; with Tivantinib + Pemetrexed (first compound 0.1 µM) it was 0.475; with Tivantinib + Pemetrexed (first compound 0.3162 µM) it was 0.479.

On to EPLC-272H, for which the relative viability is 0.905 in the test with Crenolanib (0.01 µM); 0.893 with Crenolanib (0.03162 µM); 0.838 in the test with Crenolanib (0.1 µM); 1.04 with Crenolanib (0.3162 µM); 1.11 with Crenolanib (1 µM); 1.05 with Tivantinib (0.01 µM). Further, the relative viability turned out to be 0.88 in the test with Tivantinib (0.03162 µM); 0.851 in the test with Tivantinib (0.1 µM); 0.455 with Tivantinib (0.3162 µM); 0.879 with Crenolanib + Alpelisib (first compound 0.03162 µM); 0.821 with Crenolanib + Alpelisib (first compound 0.1 µM); 1.03 with Crenolanib + Alpelisib (first compound 0.3162 µM). For the same cell line, the relative viability in the test with Crenolanib + Alpelisib (first compound 1 µM) amounted to 0.938; in the test with Tivantinib + Pemetrexed (first compound 0.01 µM) it was 0.408; in the test with Tivantinib + Pemetrexed (first compound 0.03162 µM) it was 0.356; with Tivantinib + Pemetrexed (first compound 0.1 µM), 0.344; with Tivantinib + Pemetrexed (first compound 0.3162 µM), 0.182.

For H3255, the relative viability with Crenolanib (0.01 µM) worked out at 1.02; in the test with Crenolanib (0.03162 µM) it was 0.935; with Crenolanib (0.1 µM) it was 0.929; in the test with Crenolanib (0.3162 µM), 0.984; with Crenolanib (1 µM), 0.918; in the test with Tivantinib (0.01 µM) it was 0.971. In addition, the relative viability turned out to be 0.934 with Tivantinib (0.03162 µM); 1 with Tivantinib (0.1 µM); 0.811 in the test with Crenolanib + Alpelisib (first compound 0.01 µM); 0.676 with Crenolanib + Alpelisib (first compound 0.03162 µM); 0.71 with Crenolanib + Alpelisib (first compound 0.1 µM); 0.714 with Crenolanib + Alpelisib (first compound 0.3162 µM). The relative viability with Crenolanib + Alpelisib (first compound 1 µM) amounted to 0.767; with Tivantinib + Pemetrexed (first compound 0.01 µM) it was 0.554; with Tivantinib + Pemetrexed (first compound 0.03162 µM), 0.586; with Tivantinib + Pemetrexed (first compound 0.1 µM), 0.598.

Consider HARA, for which the relative viability was 1.07 in the test with Crenolanib (0.01 µM); 1 with Crenolanib (0.03162 µM); 0.945 in the test with Crenolanib (0.1 µM); 1 with Crenolanib (0.3162 µM); 1.05 with Crenolanib (1 µM); 0.982 with Tivantinib (0.01 µM). Besides, the relative viability amounted to 0.775 in the test with Tivantinib (0.03162 µM); 0.941 in the test with Tivantinib (0.1 µM); 0.625 in the test with Tivantinib (0.3162 µM); 0.877 with Crenolanib + Alpelisib (first compound 0.01 µM); 0.818 in the test with Crenolanib + Alpelisib (first compound 0.03162 µM); 0.712 with Crenolanib + Alpelisib (first compound 0.1 µM). The relative viability with Crenolanib + Alpelisib (first compound 0.3162 µM) was 0.793; with Crenolanib + Alpelisib (first compound 1 µM), 0.751; with Tivantinib + Pemetrexed (first compound 0.01 µM) it was 0.279; with Tivantinib + Pemetrexed (first compound 0.03162 µM) it was 0.252; with Tivantinib + Pemetrexed (first compound 0.1 µM), 0.263; in the test with Tivantinib + Pemetrexed (first compound 0.3162 µM), 0.24.

On to HCC-15, for which the relative viability with Crenolanib (0.01 µM) amounted to 1.01; with Crenolanib (0.03162 µM) it was 0.991; with Crenolanib (0.1 µM), 0.93; in the test with Crenolanib (0.3162 µM), 1.08; in the test with Crenolanib (1 µM), 0.803; with Tivantinib (0.01 µM), 0.988. Moreover, the relative viability in the test with Tivantinib (0.03162 µM) was found to be 0.91; with Tivantinib (0.1 µM), 0.977; with Tivantinib (0.3162 µM), 1.08; with Crenolanib + Alpelisib (first compound 0.01 µM) it was 0.873; with Crenolanib + Alpelisib (first compound 0.03162 µM) it was 0.829; in the test with Crenolanib + Alpelisib (first compound 0.1 µM), 0.888. The relative viability with Crenolanib + Alpelisib (first compound 0.3162 µM) is 0.814; with Crenolanib + Alpelisib (first compound 1 µM), 0.836; with Tivantinib + Pemetrexed (first compound 0.01 µM), 0.215; with Tivantinib + Pemetrexed (first compound 0.03162 µM), 0.221; with Tivantinib + Pemetrexed (first compound 0.1 µM) it was 0.227; in the test with Tivantinib + Pemetrexed (first compound 0.3162 µM), 0.224.

Turning to HCC-44, the relative viability is 1.04 in the test with Crenolanib (0.01 µM); 0.965 with Crenolanib (0.03162 µM); 0.994 with Crenolanib (0.1 µM); 0.986 in the test with Crenolanib (0.3162 µM); 0.806 with Crenolanib (1 µM); 1.02 in the test with Tivantinib (0.01 µM). For the same cell line, the relative viability with Tivantinib (0.03162 µM) was determined as 1.03; with Tivantinib (0.1 µM), 1.02; in the test with Tivantinib (0.3162 µM) it was 0.908; with Crenolanib + Alpelisib (first compound 0.01 µM), 0.836; with Crenolanib + Alpelisib (first compound 0.03162 µM), 0.857; with Crenolanib + Alpelisib (first compound 0.1 µM), 0.718. Further, the relative viability came out at 0.932 with Crenolanib + Alpelisib (first compound 0.3162 µM); 0.782 with Crenolanib + Alpelisib (first compound 1 µM); 0.62 in the test with Tivantinib + Pemetrexed (first compound 0.01 µM); 0.654 with Tivantinib + Pemetrexed (first compound 0.03162 µM); 0.616 with Tivantinib + Pemetrexed (first compound 0.1 µM); 0.664 with Tivantinib + Pemetrexed (first compound 0.3162 µM).

Take HCC-78: the relative viability was 1.01 with Crenolanib (0.01 µM); 0.808 with Crenolanib (0.03162 µM); 0.84 with Crenolanib (0.1 µM); 1.02 in the test with Crenolanib (0.3162 µM); 0.804 with Crenolanib (1 µM); 0.979 with Tivantinib (0.01 µM). Besides, the relative viability stood at 0.922 in the test with Tivantinib (0.03162 µM); 0.917 with Tivantinib (0.1 µM); 0.655 in the test with Tivantinib (0.3162 µM); 0.357 with Crenolanib + Alpelisib (first compound 0.01 µM); 0.312 with Crenolanib + Alpelisib (first compound 0.03162 µM); 0.348 with Crenolanib + Alpelisib (first compound 0.1 µM). Moreover, the relative viability is 0.402 in the test with Crenolanib + Alpelisib (first compound 0.3162 µM); 0.338 with Crenolanib + Alpelisib (first compound 1 µM); 0.893 with Tivantinib + Pemetrexed (first compound 0.01 µM); 0.878 in the test with Tivantinib + Pemetrexed (first compound 0.03162 µM); 0.933 in the test with Tivantinib + Pemetrexed (first compound 0.1 µM); 0.879 in the test with Tivantinib + Pemetrexed (first compound 0.3162 µM).

The values are drawn from the supplement of paper PMC10307832.
